Values joined by “and” are separate entries in the source; they are usually repeats but may differ in a detail not shown here. Identical values can stand only once. Toxic doses and inconclusive results are not listed. Rule for the calls: active = survival T/C of 150% or more; inactive = T/C below 125% in these data.
Test system: CD2F1 mice, L1210 leukemia ip, survival T/C
Assay: NCI In Vivo Anticancer Drug Screen. Data for tumor model L1210 Leukemia (intraperitoneal) in CD2F1 (CDF1) mice
Details: higher = longer survival
How it was run: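 Vehicle-treated tumor-bearing mice served as controls (C) for compound-treated mice (T). Reported figure is T divided by C.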

[1] = endpoint: mean survival time, dose: 100.0 mg/kg/injection, schedule: Q04DX003 (ip), vehicle: saline with Tween-80
[2] = endpoint: mean survival time, dose: 6.25 mg/kg/injection, schedule: Q01DX009 (ip), vehicle: Klucel (hydroxypropylcellulose) (HPC)
[3] = endpoint: mean survival time, dose: 12.5 mg/kg/injection, schedule: Q01DX009 (ip), vehicle: Klucel (hydroxypropylcellulose) (HPC)
[4] = endpoint: mean survival time, dose: 75.0 mg/kg/injection, schedule: Q01DX001 (ip), vehicle: saline
[5] = endpoint: mean survival time, dose: 150.0 mg/kg/injection, schedule: Q01DX001 (ip), vehicle: saline
[6] = endpoint: mean survival time, dose: 50.0 mg/kg/injection, schedule: Q01DX009 (ip), vehicle: saline with Tween-80
[7] = endpoint: mean survival time, dose: 100.0 mg/kg/injection, schedule: Q01DX009 (ip), vehicle: saline with Tween-80
[8] = endpoint: mean survival time, dose: 200.0 mg/kg/injection, schedule: Q01DX009 (ip), vehicle: saline with Tween-80
[9] = endpoint: mean survival time, dose: 200.0 mg/kg/injection, schedule: Q04DX003 (ip), vehicle: saline with Tween-80
[10] = endpoint: mean survival time, dose: 400.0 mg/kg/injection, schedule: Q01DX009 (ip), vehicle: saline with Tween-80
[11] = endpoint: mean survival time, dose: 400.0 mg/kg/injection, schedule: Q04DX003 (ip), vehicle: saline with Tween-80
[12] = endpoint: mean survival time, dose: 100.0 mg/kg/injection, schedule: Q04DX003 (ip), vehicle: Klucel (hydroxypropylcellulose) (HPC)
[13] = endpoint: mean survival time, dose: 200.0 mg/kg/injection, schedule: Q04DX003 (ip), vehicle: Klucel (hydroxypropylcellulose) (HPC)
[14] = endpoint: mean survival time, dose: 400.0 mg/kg/injection, schedule: Q04DX003 (ip), vehicle: Klucel (hydroxypropylcellulose) (HPC)

Measured: T/C

CCOC(=O)C1C(=O)N(c2ccccc2)C(=O)N1C (stereo not given)
inactive: endpoint: mean survival time, dose: 12.5 mg/kg/injection, schedule: Q01DX009 (ip), vehicle: water 94 % of control | endpoint: mean survival time, dose: 25.0 mg/kg/injection, schedule: Q01DX009 (ip), vehicle: water 93 % of control | endpoint: mean survival time, dose: 50.0 mg/kg/injection, schedule: Q01DX009 (ip), vehicle: water 94 % of control | endpoint: mean survival time, dose: 100.0 mg/kg/injection, schedule: Q01DX009 (ip), vehicle: water 98 % of control | endpoint: mean survival time, dose: 200.0 mg/kg/injection, schedule: Q01DX009 (ip), vehicle: water 100 % of control

Brc1sccc1-c1cccc2ccccc12
inactive: endpoint: mean survival time, dose: 25.0 mg/kg/injection, schedule: Q04DX003 (ip), vehicle: saline with Tween-80 104 % of control | endpoint: mean survival time, dose: 50.0 mg/kg/injection, schedule: Q04DX003 (ip), vehicle: saline with Tween-80 96 % of control | [1] 104 % of control

O=C(NC/C=C/Br)NC1CCCc2ccccc21 (stereo not given)
inactive: endpoint: mean survival time, dose: 100.0 mg/kg/injection, schedule: Q04DX003 (ip), vehicle: other 96 % of control | endpoint: mean survival time, dose: 200.0 mg/kg/injection, schedule: Q04DX003 (ip), vehicle: other 102 % of control | endpoint: mean survival time, dose: 400.0 mg/kg/injection, schedule: Q04DX003 (ip), vehicle: other 96 % of control

CNC(=O)OCc1c(COC(=O)NC)c(-c2ccc(F)cc2)n2c1CCC2
inactive: endpoint: mean survival time, dose: 3.13 mg/kg/injection, schedule: Q01DX009 (ip), vehicle: Klucel (hydroxypropylcellulose) (HPC) 115 % of control | [2] 107 % of control | [3] 118 % of control

O=S(=O)(F)c1ccc(C[P+](c2ccccc2)(c2ccccc2)c2ccccc2)c(Cl)c1
inactive: endpoint: mean survival time, dose: 18.8 mg/kg/injection, schedule: Q01DX009 (ip), vehicle: saline 103 % of control | endpoint: mean survival time, dose: 18.8 mg/kg/injection, schedule: Q04DX003 (ip), vehicle: saline 114 % of control | endpoint: mean survival time, dose: 37.5 mg/kg/injection, schedule: Q01DX009 (ip), vehicle: saline 100 % of control | endpoint: mean survival time, dose: 37.5 mg/kg/injection, schedule: Q04DX003 (ip), vehicle: saline 116 % of control | [4] 103 % of control | endpoint: mean survival time, dose: 75.0 mg/kg/injection, schedule: Q04DX003 (ip), vehicle: saline 112 % of control

CSC(=CC(=O)c1ccccc1)SC
inactive: [4] 101 % of control | [5] 106 % of control

COc1c(OC(C)=O)ccc2c1C=CCCC2=O
inactive: [6] 96 % of control | [7] 100 % of control | [8] 92 % of control

O=c1c2ccccc2oc2ccccc12
inactive: [6] 95 % of control | [7] 100 % of control | [8] 93 % of control

O=C(NCCCl)NCCCl
inactive: endpoint: median survival time, dose: 267.0 mg/kg/injection, schedule: Q07DX003 (ip), vehicle: saline 103 % of control | endpoint: median survival time, dose: 400.0 mg/kg/injection, schedule: Q07DX003 (ip), vehicle: saline 97 % of control | endpoint: median survival time, dose: 600.0 mg/kg/injection, schedule: Q07DX003 (ip), vehicle: saline 94 % of control | endpoint: median survival time, dose: 800.0 mg/kg/injection, schedule: Q07DX003 (ip), vehicle: saline 99 % of control and 100 % of control

O=C(O)/C=C/S(=O)(=O)O
inactive: endpoint: mean survival time, dose: 9.5 mg/kg/injection, schedule: Q01DX001 (ip), vehicle: saline 96 % of control | endpoint: mean survival time, dose: 19.0 mg/kg/injection, schedule: Q01DX001 (ip), vehicle: saline 98 % of control | endpoint: mean survival time, dose: 38.0 mg/kg/injection, schedule: Q01DX001 (ip), vehicle: saline 98 % of control | [4] 100 % of control

CC1(C)CC(=O)C2=C(C1)OC1(O)CC(C)(C)CC(=O)C1C2c1ccccc1Cl (stereo not given)
inactive: [7] 93 % of control | [1] 92 % of control | [8] 93 % of control | [9] 94 % of control | [10] 95 % of control | [11] 96 % of control

Nc1ccc2[nH]c(=S)sc2c1
inactive: [1] 94 % of control | [9] 92 % of control | [11] 90 % of control

O=C(O)c1c(Cl)ccc(F)c1Cl
inactive: endpoint: mean survival time, dose: 100.0 mg/kg/injection, schedule: Q04DX002 (ip), vehicle: saline with Tween-80 105 % of control | endpoint: mean survival time, dose: 200.0 mg/kg/injection, schedule: Q04DX002 (ip), vehicle: saline with Tween-80 105 % of control | endpoint: mean survival time, dose: 400.0 mg/kg/injection, schedule: Q04DX002 (ip), vehicle: saline with Tween-80 94 % of control

CCCCC(C)(O)CC (stereo not given)
inactive: [7] 93 % of control | [1] 95 % of control | [8] 95 % of control | [9] 105 % of control | [11] 107 % of control

C#CCOC(=O)NC1CCCCC1
inactive: [12] 104 % of control | [13] 105 % of control | [14] 102 % of control

O=C1c2c(O)ccc(Cl)c2C(=O)c2c(O)ccc(Cl)c21
inactive: [7] 95 % of control | [8] 93 % of control | [10] 97 % of control

COc1cc2c(cc1OC)C13CCN4CC5=CCOC(CC(=O)O)C(C5CC41)C3N2 (stereo not given)
inactive: endpoint: mean survival time, dose: 75.0 mg/kg/injection, schedule: Q01DX001 (ip), vehicle: other 98 % of control | [4] 101 % of control | [5] 97 % of control

COc1cc(/C=C2\C(=O)NC(=O)N(c3ccccc3)C2=O)cc(OC)c1OC
inactive: [1] 100 % of control | [9] 100 % of control

Cc1ccc(S(=O)(=O)Nc2ccccc2OCCOCCOc2ccccc2NS(=O)(=O)c2ccc(C)cc2)cc1
inactive: endpoint: mean survival time, dose: 100.0 mg/kg/injection, schedule: Q01DX001 (ip), vehicle: saline with Tween-80 103 % of control | endpoint: mean survival time, dose: 200.0 mg/kg/injection, schedule: Q01DX001 (ip), vehicle: saline with Tween-80 91 % of control | endpoint: mean survival time, dose: 400.0 mg/kg/injection, schedule: Q01DX001 (ip), vehicle: saline with Tween-80 95 % of control

O=C(Nc1cc2ccccc2o1)O/N=C/c1ccccn1
inactive: [1] 92 % of control | [9] 92 % of control | [11] 86 % of control

N#C/C(=C(\N)c1ccccc1)c1ccccc1
inactive: endpoint: mean survival time, dose: 100.0 mg/kg/injection, schedule: Q01DX001 (ip), vehicle: Klucel (hydroxypropylcellulose) (HPC) 93 % of control | endpoint: mean survival time, dose: 400.0 mg/kg/injection, schedule: Q01DX001 (ip), vehicle: Klucel (hydroxypropylcellulose) (HPC) 112 % of control

C[n+]1ccc(/C=C\c2ccc(N(CCCl)CCCl)cc2)c2ccccc21
inactive: [2] 98 % of control | [3] 101 % of control | endpoint: mean survival time, dose: 25.0 mg/kg/injection, schedule: Q01DX009 (ip), vehicle: Klucel (hydroxypropylcellulose) (HPC) 112 % of control

CCOC(=O)c1[nH]c2cccc3c2c1CC(Br)C3=O (stereo not given)
inactive: endpoint: median survival time, dose: 12.5 mg/kg/injection, schedule: Q01DX009 (ip), vehicle: saline with Tween-80 120 % of control | endpoint: median survival time, dose: 25.0 mg/kg/injection, schedule: Q01DX009 (ip), vehicle: saline with Tween-80 109 % of control | endpoint: median survival time, dose: 50.0 mg/kg/injection, schedule: Q01DX009 (ip), vehicle: saline with Tween-80 109 % of control | endpoint: median survival time, dose: 100.0 mg/kg/injection, schedule: Q01DX009 (ip), vehicle: saline with Tween-80 107 % of control

CC(CCC(=O)c1ccccc1)c1ccc2ccccc2c1 (stereo not given)
inactive: endpoint: mean survival time, dose: 100.0 mg/kg/injection, schedule: Q01DX009 (ip), vehicle: Klucel (hydroxypropylcellulose) (HPC) 92 % of control | [12] 106 % of control | endpoint: mean survival time, dose: 200.0 mg/kg/injection, schedule: Q01DX009 (ip), vehicle: Klucel (hydroxypropylcellulose) (HPC) 100 % of control | [13] 104 % of control | endpoint: mean survival time, dose: 400.0 mg/kg/injection, schedule: Q01DX009 (ip), vehicle: Klucel (hydroxypropylcellulose) (HPC) 96 % of control | [14] 97 % of control

Nn1nc2ccccc2n1
inactive: [1] 111 % of control | [9] 117 % of control | [11] 95 % of control

CC(C#N)(Cc1ccccc1)Nc1ccccc1 (stereo not given)
inactive: [1] 97 % of control | [9] 91 % of control
